According to US20160298165A1 (priority 2013, published 2016):

How the values were obtained:
[1] = system: INH-resistant M. tuberculosis strains (H37Rv inhA S94A, H37Rv PmabAinhA c-15t, H37Rv katG g371del); format: cell-based, Mycobacterium tuberculosis
M. tuberculosis H37Rv = format: cell-based, Mycobacterium tuberculosis
[2] = system: M. tuberculosis H37Rv rpoB H445R; format: cell-based, Mycobacterium tuberculosis
[3] = system: M. tuberculosis Δsdh1 mutant; format: cell-based; details: aerobic, at two and five days
[4] = system: M. tuberculosis parental, sdh1 and sdh2 mutant strains
[5] = system: M. tuberculosis Δsdh1 or Δsdh2 mutants; format: cell-based; details: hypoxic conditions

Compound: N[C@@H](CS)C(=O)O [cysteine]
- growth of INH-resistant strains [1]: not impaired
- Frequency of mutation for INH, Average (M. tuberculosis H37Rv): 7 × 10^−7
- Frequency of mutation for RIF (M. tuberculosis H37Rv): 2 × 10^−8
- Frequency of mutation for RIF, Average (M. tuberculosis H37Rv): 2 × 10^−8
- decrease in the frequency of spontaneous INH-resistant mutants (M. tuberculosis H37Rv): ≤ 10 fold
- decrease in the frequency of spontaneous RIF-resistant mutants (M. tuberculosis H37Rv): 3 fold
- growth of H37Rv rpoB H445R [2]: grew well

Compound: CC[C@@H](CO)NCCN[C@@H](CC)CO [EMB, Ethambutol, reference compound]
- clearing of the Δsdh1 mutant by single drugs vs parental [3]: this was not true

Compound: N#CC(C#N)=NNc1cccc(Cl)c1 [CCCP, carbonyl cyanide 3-chlorophenylhydrazone]
- time after which culture was unable to be rescued [4]: 22 to 24 days
- viable cells at end of experiment [4]: no viable cells remained
- parental inoculum remaining viable ([4]; Mycobacterium tuberculosis): 0.1%

Compound: NNC(=O)c1ccncc1 [INH, Isoniazid]
- clearing of the Δsdh1 mutant by single drugs vs parental [3]: this was not true
- growth of INH-resistant strains [1]: not impaired
- killing of Δsdh1 or Δsdh2 mutants compared to the parental strain [5]: no effect

Compound: CCc1cc(C(N)=S)ccn1 [ETH]
- clearing of the Δsdh1 mutant by single drugs vs parental [3]: cleared more rapidly

Compound: CN[C@@H]1[C@H](O[C@H]2[C@H](O[C@H]3[C@H](O)[C@@H](O)[C@H](N=C(N)N)[C@@H](O)[C@@H]3N=C(N)N)O[C@@H](C)[C@]2(O)C=O)O[C@@H](CO)[C@H](O)[C@H]1O [STR]
- clearing of the Δsdh1 mutant by single drugs vs parental [3]: this was not true
